Measured values from patent US9924717B2, “Molecules having pesticidal utility, and intermediates, compositions, and processes, related thereto” (Dow AgroSciences LLC, priority 2016, dated 2018).

Columns and labels:
Format in all cases: in vivo
[1] = test system: Yellow Fever Mosquito (Aedes aegypti, AEDSAE) (YFM); test: Bioassays on Yellow Fever Mosquito (YFM), 96-well plate larval assay; details: Table ABC rating
Method: Example C: Bioassays on Yellow Fever Mosquito (Aedes aegypti, AEDSAE) (“YFM”)
Certain molecules disclosed in this document were tested against YFM using procedures described in the following paragraph. In the reporting of the results, the “GPA & YFM Rating Table” was used (See Table Section).
Master plates containing 400 μg of a molecule dissolved in 100 μL of dimethyl sulfoxide (DMSO) (equivalent to a 4000 ppm solution) are used. A master plate of assembled molecules contains 15 μL per well. To this plate, 135 μL of a 90:10 water:acetone mixture is added to each well. A robot (Biomek® NXP Laboratory Automation Workstation) is programmed to dispense 15 μL aspirations from the master plate into an empty 96-well shallow plate (“daughter” plate). There are 6 reps (“daughter” plates) created per master. The created daughter plates are then immediately infested with YFM larvae.
The day before plates are to be treated, mosquito eggs are placed in Millipore water containing liver powder to begin hatching (4 g. into 400 mL). After the daughter plates are created using the robot, they are infested with 220 μL of the liver powder/larval mosquito mixture (about 1 day-old larvae). After plates are infested with mosquito larvae, a non-evaporative lid is used to cover the plate to reduce drying. Plates are held at room temperature for 3 days prior to grading. After 3 days, each well is observed and scored based on mortality. The results are indicated in the table entitled “Table ABC: Biological Results” (See Table Section).

[2] = test system: Cabbage Looper (Trichoplusia ni, TRIPNI) (CL); test: Bioassays on Cabbage Looper (CL), 128-well diet tray assay; details: Table ABC rating, Cabbage Looper
Method: (§1) Example A: Bioassays on Beet Armyworm (Spodoptera exigua, LAPHEG) (“BAW”), Corn Earworm (Helicoverpa zea, Helize) (“CEW”), and Cabbage Looper (Trichoplusia ni, TRIPNI) (“CL”)
(§2) Certain molecules disclosed in this document were tested against BAW, CEW, and CL using procedures described in the following examples. In the reporting of the results, the “BAW, CEW, & CL Rating Table” was used (See Table Section).
Bioassays on CL were conducted using a 128-well diet tray assay. one to five second instar CL larvae were placed in each well (3 mL) of the diet tray that had been previously filled with 1 mL of artificial diet to which 50 μg/cm^2 of the test molecule (dissolved in 50 μL of 90:10 acetone-water mixture) had been applied (to each of eight wells) and then allowed to dry. Trays were covered with a clear self-adhesive cover and held at 25° C., 14:10 light-dark for five to seven days. Percent mortality was recorded for the larvae in each well; activity in the eight wells was then averaged. The results are indicated in the table entitled “Table ABC: Biological Results” (See Table Section).
(§3) Bioassays on BAW and CL were conducted according to the procedures outlined in Example A: Bioassays on Beet Armyworm (“BAW”) and Cabbage Looper (“CL”) using the indicated concentrations.

[3] = test system: Beet Armyworm (Spodoptera exigua, LAPHEG) (BAW); test: Bioassays on Beet Armyworm (BAW), 128-well diet tray assay; details: Table ABC rating, Beet Armyworm
Method: as §1, §2
Bioassays on BAW were conducted using a 128-well diet tray assay. one to five second instar BAW larvae were placed in each well (3 mL) of the diet tray that had been previously filled with 1 mL of artificial diet to which 50 μg/cm^2 of the test molecule (dissolved in 50 μL of 90:10 acetone-water mixture) had been applied (to each of eight wells) and then allowed to dry. Trays were covered with a clear self-adhesive cover and held at 25° C., 14:10 light-dark for five to seven days. Percent mortality was recorded for the larvae in each well; activity in the eight wells was then averaged. The results are indicated in the table entitled “Table ABC: Biological Results” (See Table Section).
as §3

O=C(NC1CCC(F)(F)CC1)c1ccc(/C(F)=C/C(c2ccc(Br)c(Br)c2)C(F)(F)F)cc1C(F)(F)F (centres unmarked) [F44, (Z)-4-(3-(3,4-Dibromophenyl)-1,4,4,4-tetrafluorobut-1-en-1-yl)-N-(4,4-difluorocyclohexyl)-2-(trifluoromethyl)benzamide]
YFM [1]: A (80-100) | pest or weed control at 50 µg/cm2 [2]: 50 to 100% | pest or weed control at 50 µg/cm2 [3]: 50 to 100%

Cc1cc(C(/C=C(\F)c2ccc(C(=O)NC3CCC(F)(F)CC3)c(C(F)(F)F)c2)C(F)(F)F)cc(C)c1Cl (centres unmarked) [F31, (Z)-4-(3-(4-Chloro-3,5-dimethylphenyl)-1,4,4,4-tetrafluorobut-1-en-1-yl)-N-(4,4difluorocyclohexyl)-2-(trifluoromethyl)benzamide]
YFM [1]: A (80-100) | pest or weed control at 50 µg/cm2 [2]: 50 to 100% | pest or weed control at 50 µg/cm2 [3]: 50 to 100%

O=C(NC1CC1)c1ccc(/C(F)=C/C(c2ccc(Br)c(Br)c2)C(F)(F)F)cc1C(F)(F)F (centres unmarked) [F46, (Z)—N-Cyclopropyl-4-(3-(3,4-dibromophenyl)-1,4,4,4-tetrafluorobut-1-en-1-yl)-2-(trifluoromethyl)benzamide]
YFM [1]: A (80-100) | pest or weed control at 50 µg/cm2 [2]: 50 to 100% | pest or weed control at 50 µg/cm2 [3]: 50 to 100%

O=C(NCc1ccnc(Cl)c1)c1ccc(/C(F)=C/C(c2cc(Cl)c(Cl)c(Cl)c2)C(F)(F)F)cc1C(F)(F)F (centres unmarked) [F47, (Z)—N-((2-Chloropyridin-4-yl)methyl)-4-(1,4,4,4-tetrafluoro-3-(3,4,5-trichlorophenyl)but-1-en-1-yl)-2-(trifluoromethyl)benzamide]
pest or weed control at 50 µg/cm2 [2]: 50 to 100% | pest or weed control at 50 µg/cm2 [3]: 50 to 100%

O=C(NC1CC(F)(F)C1)c1ccc(/C(F)=C/C(c2ccc(F)c(Cl)c2)C(F)(F)F)cc1C(F)(F)F (centres unmarked) [F63, (Z)-4-(3-(3-Chloro-4-fluorophenyl)-1,4,4,4-tetrafluorobut-1-en-1-yl)-N-(3,3-difluorocyclobutyl)-2-(trifluoromethyl)benzamide]
pest or weed control at 50 µg/cm2 [2]: 50 to 100% | pest or weed control at 50 µg/cm2 [3]: 50 to 100%

CC(NC(=O)c1ccc(/C(F)=C/C(c2cc(Br)c(Cl)c(Br)c2)C(F)(F)F)cc1C(F)(F)F)C(F)(F)F (centres unmarked) [F36, 4-((Z)-3-(3,5-Dibromo-4-chlorophenyl)-1,4,4,4-tetrafluorobut-1-en-1-yl)-2-(trifluoromethyl)-N-(1,1,1-trifluoropropan-2-yl)benzamide]
pest or weed control at 50 µg/cm2 [2]: 50 to 100% | pest or weed control at 50 µg/cm2 [3]: 50 to 100%

O=C(NC1CS(=O)(=O)C1)c1ccc(/C(F)=C/C(c2cc(Cl)c(Cl)c(Cl)c2)C(F)(F)F)cc1C(F)(F)F (centres unmarked) [PF4, (Z)—N-(1,1-Dioxidothietan-3-yl)-4-(1,4,4,4-tetrafluoro-3-(3,4,5-trichlorophenyl)but-1-en-1-yl)-2-(trifluoromethyl)benzamide]
pest or weed control at 50 µg/cm2 [2]: 50 to 100% | pest or weed control at 50 µg/cm2 [3]: 50 to 100%

CC(NC(=O)c1ccc(/C(F)=C/C(c2cc(Cl)c(Cl)c(Cl)c2)C(F)(F)F)cc1C(F)(F)F)C(F)(F)F (centres unmarked) [F2, (Z)-4-(1,4,4,4-Tetrafluoro-3-(3,4,5-trichlorophenyl)but-1-en-1-yl)-2-(trifluoromethyl)-N-(1,1,1-trifluoropropan-2-yl)benzamide]
pest or weed control at 50 µg/cm2 [2]: 50 to 100% | pest or weed control at 50 µg/cm2 [3]: 50 to 100%

O=C(c1ccc(/C(F)=C/C(c2cc(Cl)c(Cl)c(Cl)c2)C(F)(F)F)cc1C(F)(F)F)N1CCCC1 (centres unmarked) [F6, (Z)-Pyrrolidin-1-yl(4-(1,4,4,4-tetrafluoro-3-(3,4,5-trichlorophenyl)but-1-en-1-yl)-2-(trifluoromethyl)phenyl) methanone]
pest or weed control at 50 µg/cm2 [2]: 50 to 100% | pest or weed control at 50 µg/cm2 [3]: 50 to 100%

CN(C)/C=N/C(=O)c1ccc(/C(F)=C/C(c2cc(Cl)c(Cl)c(Cl)c2)C(F)(F)F)cc1C(F)(F)F (centres unmarked) [F18, (E)-N-((dimethylamino)methylene)-4-((Z)-1,4,4,4-tetrafluoro-3-(3,4,5-trichlorophenyl)but-1-en-1-yl)-2-(trifluoromethyl)benzamide]
pest or weed control at 50 µg/cm2 [2]: 50 to 100% | pest or weed control at 50 µg/cm2 [3]: 50 to 100%

N#CC1(NC(=O)c2ccc(/C(F)=C/C(c3cc(Cl)c(Cl)c(Cl)c3)C(F)(F)F)cc2C(F)(F)F)CC1 (centres unmarked) [F62, (Z)—N-(1-Cyanocyclopropyl)-4-(1,4,4,4-tetrafluoro-3-(3,4,5-trichlorophenyl)but-1-en-1-yl)-2-(trifluoromethyl)benzamide]
pest or weed control at 50 µg/cm2 [2]: 50 to 100% | pest or weed control at 50 µg/cm2 [3]: 50 to 100%

Cc1ccc([C@@H](C)NC(=O)c2ccc(/C(F)=C/C(c3cc(Cl)c(Cl)c(Cl)c3)C(F)(F)F)cc2C(F)(F)F)cc1 (stereo partly drawn) [F8, 4-((Z)-1,4,4,4-Tetrafluoro-3-(3,4,5-trichlorophenyl)but-1-en-1-yl)-N—((R)-1-(p-tolyl)ethyl)-2-(trifluoromethyl)benzamide]
pest or weed control at 50 µg/cm2 [2]: 50 to 100% | pest or weed control at 50 µg/cm2 [3]: 50 to 100%

O=CNC(=O)c1ccc(/C(F)=C/C(c2cc(Cl)c(Cl)c(Cl)c2)C(F)(F)F)cc1C(F)(F)F (centres unmarked) [F20, (Z)—N-Formyl-4-(1,4,4,4-tetrafluoro-3-(3,4,5-trichlorophenyl)but-1-en-1-yl)-2-(trifluoromethyl)benzamide]
pest or weed control at 50 µg/cm2 [2]: 50 to 100% | pest or weed control at 50 µg/cm2 [3]: 50 to 100%

O=C(NC1CCCC(F)(F)C1)c1ccc(/C(F)=C/C(c2cc(Cl)c(Cl)c(Cl)c2)C(F)(F)F)cc1C(F)(F)F (centres unmarked) [F13, (Z)—N-(3,3-Difluorocyclohexyl)-4-(1,4,4,4-tetrafluoro-3-(3,4,5-trichlorophenyl)but-1-en-1-yl)-2-(trifluoromethyl)benzamide]
pest or weed control at 50 µg/cm2 [2]: 50 to 100% | pest or weed control at 50 µg/cm2 [3]: 50 to 100%

O=C(NC1CC1)c1ccc(/C(F)=C/C(c2ccc(Cl)c(Cl)c2)C(F)(F)F)cc1C(F)(F)F (centres unmarked) [F35, (Z)—N-Cyclopropyl-4-(3-(3,4-dichlorophenyl)-1,4,4,4-tetrafluorobut-1-en-1-yl)-2-(trifluoromethyl)benzamide]
pest or weed control at 50 µg/cm2 [2]: 50 to 100% | pest or weed control at 50 µg/cm2 [3]: 50 to 100%

O=C(NC1CCC(F)(F)CC1)c1ccc(/C(F)=C/C(c2cc(Cl)c(Cl)c(Cl)c2)C(F)(F)F)cc1Cl (centres unmarked) [F9, (Z)-2-Chloro-N-(4,4-difluorocyclohexyl)-4-(1,4,4,4-tetrafluoro-3-(3,4,5-trichlorophenyl)but-1-en-1-yl)benzamide]
pest or weed control at 50 µg/cm2 [2]: 50 to 100% | pest or weed control at 50 µg/cm2 [3]: 50 to 100%

NC(=O)c1ccc(/C(F)=C/C(c2cc(Cl)c(Cl)c(Cl)c2)C(F)(F)F)cc1C(F)(F)F (centres unmarked) [F17, (Z)-4-(1,4,4,4-Tetrafluoro-3-(3,4,5-trichlorophenyl)but-1-en-1-yl)-2-(trifluoromethyl)benzamide]
pest or weed control at 50 µg/cm2 [2]: 50 to 100% | pest or weed control at 50 µg/cm2 [3]: 50 to 100%

Cc1cc(C(/C=C(\F)c2ccc(C(=O)NC3CC3)c(C(F)(F)F)c2)C(F)(F)F)cc(C)c1Cl (centres unmarked) [F37, (Z)-4-(3-(4-Chloro-3,5-dimethylphenyl)-1,4,4,4-tetrafluorobut-1-en-1-yl)-N-cyclopropyl-2-(trifluoromethyl)benzamide]
pest or weed control at 50 µg/cm2 [2]: 50 to 100% | pest or weed control at 50 µg/cm2 [3]: 50 to 100%

O=C(c1ccc(/C(F)=C/C(c2cc(Cl)c(Cl)c(Cl)c2)C(F)(F)F)cc1Br)N1CCCC1 (centres unmarked) [F5, (Z)-(2-Bromo-4-(1,4,4,4-tetrafluoro-3-(3,4,5-trichlorophenyl)but-1-en-1-yl)phenyl)(pyrrolidin-1-yl)methanone]
pest or weed control at 50 µg/cm2 [2]: 50 to 100% | pest or weed control at 50 µg/cm2 [3]: 50 to 100%
